Results published in ChEMBL document CHEMBL3862043, “Fluorescent Inhibitors as Tools To Characterize Enzymes: Case Study of the Lipid Kinase Phosphatidylinositol 4-Kinase IIIβ (PI4KB)” (J Med Chem, 2017).

Assay: Drug uptake in vesicles of HeLa cells transfected with iRFP-tagged PI4KB (unknown origin) incubated for 30 mins by fluorescence spectroscopy
Type: ADME, cell-based
Settings: human, 0.5 h; call rule not given here

Drug uptake: Active
Compound: CCc1cc(CNc2cc(Cl)nn3c(-c4ccc(OC)c(S(=O)(=O)NCc5cn(-c6cc7ccc(O)cc7oc6=O)nn5)c4)c(C)nc23)ccn1
